According to patent US12121525B2, “Methods for treating GI syndrome and graft versus host disease” (Sloan Kettering Institute for Cancer Research, priority 2007, dated 2024):

Columns and labels:
C57BL/6 hepatocytes = type: cell-based; details: 200 nM, CTL-treated asmase−/− hepatocytes
Procedure: Whereas Fas-mediated apoptotic death receptor activation requires generation of ceramide-rich platforms in some cell systems, CTL-induced platform generation was assessed in asmase^+/+ and asmase^−/− hepatocytes in the ex vivo model of GvHD. Alloactivated T cells induced rapid generation of ceramide-rich platforms on the surface of the target hepatocytes 10 min following co-incubation (FIG. 16C). Platform generation increased within one minute, peaked at 10 min, and persisted for over 60 min (FIG. 16D). Fas, required for apoptosis in this system, concentrated within the ceramide-rich platform as determined by confocal microscopy.
Platforms were detected as previously described. […]; Sigma-Aldrich) for 45 min at 4° C., washed twice in PBS containing 0.1% Triton X-100 and mounted in fluorescent mounting medium (Dako, Carpenteria CA). Fluorescence was detected using an Axiovert S-100 Zeiss fluorescence microscope equipped with a SPOT digital camera. The percentage of cells containing platforms, i.e. those in which the fluorescence condenses onto less than 15% of the cell surface, was determined by counting 150-250 cells per point. Alternately, platforms were identified using a mouse monoclonal anti-ceramide antibody MID 15B4 IgM (1:50 dilution, Alexis Biochemicals), mouse monoclonal anti-Fas CH-11 IgM (1:500 dilution, Upstate Biotechnology) or polyclonal rabbit anti-ASMase antibody 1598 (1:100 dilution) and detected using Cy3-conjugated anti-mouse or anti-rabbit IgM (1:500 dilution, Roche Molecular Biochemicals), respectively. Rabbit polyclonal anti-CD46 (1:1000 dilution, Santa Cruz Biotechnology, Santa Cruz CA) was used as a negative control. In some studies, confocal images were obtained using a Leica TCS SPZ upright confocal microscope. Alternatively, 0.5×10^6hepatocytes were stimulated for the indicated times with CTLs and platform formation was assessed as described.

splenic T cells = assay: Activation-induced cell death (AICD) assay, T cell apoptosis; type: cell-based, mouse; details: 500 nM; 16 hr
Excerpt: To define a role for target cell ASMase in AICD, asmase^+/+, asmase^−/− or MRL.1pr (FasR^−/−) T cells were stimulated for 24 hr with 10 microgam/ml ConA, washed, rested in medium containing 20 U/ml rIL-2 for 24 hr, and finally AICD was initiated by restimulation in medium containing 20 U/ml rIL-2 and increasing concentrations of plate bound anti-CD3 mAb for 24 hr. AICD induction by anti-CD3 mAb conferred ceramide-rich platform generation 4 hr following stimulation (FIG. 19D), evident in 26.4±1.6% of the population of asmase^+/+ T cells compared to 5.1±1.0% of asmase^−/− T cells (p<0.005). Confocal analysis identified colocalization of the sphingolipid GM1 (FIG. 19E) and Fas within ceramide-rich platforms in asmase^+/+ T cells.
To characterize the impact of platform generation on AICD, asmase^+/+ and asmase^−/− T cells were induced to undergo AICD and apoptosis was quantified 16 hr thereafter. Apoptosis in asmase^+/+ T cells was anti-CD3 mAb dose-dependent, reaching 32.9±5.2% apoptosis 16 hr post induction (FIG. 19F). […]
Harvested splenocytes were enriched for T lymphocytes by nylon wool passage, resulting in >90% purity based upon FITC-CD3 mAb staining by flow cytometry. […] Cells were subsequently fixed, stained with 25 μl of 24 μg/ml bis-benzimide trihydrochloride solution (Hoechst #33258; Sigma-Aldrich, Milwaukee Wisc.) and apoptosis was quantified by fluorescence microscopy, as above.

C57BL/6 splenocytes = assay: Platform generation on target splenocytes coincubated with MLR-primed CTLs; details: 500 nM

CCCCCCCCCCCCC/C=C/[C@@H](O)[C@H](CO)NC(=O)CCCCCCCCCCCCCCC [C16-ceramide]
platform formation, % of cells (C57BL/6 hepatocytes): 46.3±1.3%
apoptosis of asmase−/− T cells stimulated to undergo AICD (splenic T cells): completely restored
platform generation on asmase−/− target splenocytes (C57BL/6 splenocytes): restored
